{
  "source": "patent US7118895B2",
  "about": "“Process for producing aglycon by using diglycosidase and flavor-improved food containing the aglycon and converting agent to be used in the process” (Amano Enzyme Inc., priority 2000, dated 2006)",
  "tested_on": "Crude diglycosidase",
  "experiment": "Examination of pH in the conversion into isoflavone aglycons by diglycosidase using soybean materials",
  "format": "biochemical, Penicillium multicolor IAM7153",
  "conditions": "for Decomposition efficiency of glycitin family in roasted soy flour / Decomposition efficiency of glycitin family in soymilk: 55° C.",
  "outline": "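HPLC readout: isoflavone glycosides vs aglycons. Substrates: 50 mg soy material (roasted flour, soymilk, defatted bean, concentrated protein), pH 2–11 (HCl/NaOH). Crude diglycosidase solution 1.88 AU/mL, matched pH; 55° C; quenched with ethanol at 0/1/3/6 h; centrifuged 15,000 rpm, 4° C, 10 min.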",
  "key": {"[1]": {"conditions": "pH6.6, heat treatment of enzyme: no, reaction time 0 h"}, "[2]": {"conditions": "pH6.6, heat treatment of enzyme: no, reaction time 1 h"}, "[3]": {"conditions": "pH6.6, heat treatment of enzyme: no, reaction time 3 h"}, "[4]": {"conditions": "pH6.6, heat treatment of enzyme: no, reaction time 6 h"}, "[5]": {"conditions": "pH6.6, heat treatment of enzyme: yes, reaction time 6 h"}},
  "data": [
    {"smiles": "COc1cc2c(=O)c(-c3ccc(O)cc3)coc2cc1O[C@@H]1O[C@H](CO)[C@@H](O)[C@H](O)[C@H]1O", "note": "[glycitin]", "values": [
      {"measurement": "Decomposition efficiency of glycitin family in defatted soybean", "setting": "pH4.8, heat treatment of enzyme: no, reaction time 3 h", "value": "not detected"},
      {"measurement": "Decomposition efficiency of glycitin family in defatted soybean", "setting": "pH4.8, heat treatment of enzyme: no, reaction time 6 h", "value": "not detected"},
      {"measurement": "Decomposition efficiency of glycitin family in defatted soybean", "setting": "pH4.8, heat treatment of enzyme: yes, reaction time 6 h", "value": "not detected"},
      {"measurement": "Decomposition efficiency of glycitin family in roasted soy flour", "setting": "pH5, heat treatment of enzyme no, reaction time 0 h", "value": 56.6},
      {"measurement": "Decomposition efficiency of glycitin family in roasted soy flour", "setting": "pH5, heat treatment of enzyme no, reaction time 1 h", "value": "not detected"},
      {"measurement": "Decomposition efficiency of glycitin family in roasted soy flour", "setting": "pH5, heat treatment of enzyme no, reaction time 3 h", "value": "not detected"},
      {"measurement": "Decomposition efficiency of glycitin family in roasted soy flour", "setting": "pH5, heat treatment of enzyme no, reaction time 6 h", "value": "not detected"},
      {"measurement": "Decomposition efficiency of glycitin family in roasted soy flour", "setting": "pH5, heat treatment of enzyme yes, reaction time 6 h", "value": 55.4},
      {"measurement": "Decomposition efficiency of glycitin family in concentrated soybean protein", "setting": "pH5.1, heat treatment of enzyme: no, reaction time 0 h", "value": 52.4, "unit": "%"},
      {"measurement": "Decomposition efficiency of glycitin family in concentrated soybean protein", "setting": "pH5.1, heat treatment of enzyme: no, reaction time 1 h", "value": 4.1, "unit": "%"},
      {"measurement": "Decomposition efficiency of glycitin family in concentrated soybean protein", "setting": "pH5.1, heat treatment of enzyme: no, reaction time 3 h", "value": "not detected"},
      {"measurement": "Decomposition efficiency of glycitin family in concentrated soybean protein", "setting": "pH5.1, heat treatment of enzyme: no, reaction time 6 h", "value": "not detected"},
      {"measurement": "Decomposition efficiency of glycitin family in concentrated soybean protein", "setting": "pH5.1, heat treatment of enzyme: yes, reaction time 6 h", "value": 52.3, "unit": "%"},
      {"measurement": "Decomposition efficiency of glycitin family in defatted soybean", "setting": "pH5.4, heat treatment of enzyme: no, reaction time 0 h", "value": "not detected"},
      {"measurement": "Decomposition efficiency of glycitin family in defatted soybean", "setting": "pH5.4, heat treatment of enzyme: no, reaction time 1 h", "value": "not detected"},
      {"measurement": "Decomposition efficiency of glycitin family in defatted soybean", "setting": "pH5.4, heat treatment of enzyme: no, reaction time 3 h", "value": "not detected"},
      {"measurement": "Decomposition efficiency of glycitin family in defatted soybean", "setting": "pH5.4, heat treatment of enzyme: no, reaction time 6 h", "value": "not detected"},
      {"measurement": "Decomposition efficiency of glycitin family in defatted soybean", "setting": "pH5.4, heat treatment of enzyme: yes, reaction time 6 h", "value": "not detected"},
      {"measurement": "Decomposition efficiency of glycitin family in soymilk", "setting": "pH6.2, heat treatment of enzyme no, reaction time 0 h", "value": 50.7},
      {"measurement": "Decomposition efficiency of glycitin family in soymilk", "setting": "pH6.2, heat treatment of enzyme no, reaction time 1 h", "value": "not detected"},
      {"measurement": "Decomposition efficiency of glycitin family in soymilk", "setting": "pH6.2, heat treatment of enzyme no, reaction time 3 h", "value": "not detected"},
      {"measurement": "Decomposition efficiency of glycitin family in soymilk", "setting": "pH6.2, heat treatment of enzyme no, reaction time 6 h", "value": "not detected"},
      {"measurement": "Decomposition efficiency of glycitin family in soymilk", "setting": "pH6.2, heat treatment of enzyme yes, reaction time 6 h", "value": 54.2},
      {"measurement": "Decomposition efficiency of glycitin family in roasted soy flour", "setting": "pH6.5, heat treatment of enzyme no, reaction time 0 h", "value": 55.9},
      {"measurement": "Decomposition efficiency of glycitin family in roasted soy flour", "setting": "pH6.5, heat treatment of enzyme no, reaction time 1 h", "value": "not detected"},
      {"measurement": "Decomposition efficiency of glycitin family in roasted soy flour", "setting": "pH6.5, heat treatment of enzyme no, reaction time 3 h", "value": "not detected"},
      {"measurement": "Decomposition efficiency of glycitin family in roasted soy flour", "setting": "pH6.5, heat treatment of enzyme no, reaction time 6 h", "value": "not detected"},
      {"measurement": "Decomposition efficiency of glycitin family in roasted soy flour", "setting": "pH6.5, heat treatment of enzyme yes, reaction time 6 h", "value": 54.8},
      {"measurement": "Decomposition efficiency of glycitin family in concentrated soybean protein", "setting": "[1]", "value": 52.2, "unit": "%"},
      {"measurement": "Decomposition efficiency of glycitin family in defatted soybean", "setting": "[1]", "value": "not detected"},
      {"measurement": "Decomposition efficiency of glycitin family in concentrated soybean protein", "setting": "[2]", "value": 22.6, "unit": "%"},
      {"measurement": "Decomposition efficiency of glycitin family in defatted soybean", "setting": "[2]", "value": "not detected"},
      {"measurement": "Decomposition efficiency of glycitin family in concentrated soybean protein", "setting": "[3]", "value": 6.9, "unit": "%"},
      {"measurement": "Decomposition efficiency of glycitin family in defatted soybean", "setting": "[3]", "value": "not detected"},
      {"measurement": "Decomposition efficiency of glycitin family in concentrated soybean protein", "setting": "[4]", "value": 2.0, "unit": "%"},
      {"measurement": "Decomposition efficiency of glycitin family in defatted soybean", "setting": "[4]", "value": "not detected"},
      {"measurement": "Decomposition efficiency of glycitin family in concentrated soybean protein", "setting": "[5]", "value": 53.3, "unit": "%"},
      {"measurement": "Decomposition efficiency of glycitin family in defatted soybean", "setting": "[5]", "value": "not detected"},
      {"measurement": "Decomposition efficiency of glycitin family in soymilk", "setting": "pH7.2, heat treatment of enzyme no, reaction time 0 h", "value": 50.0},
      {"measurement": "Decomposition efficiency of glycitin family in soymilk", "setting": "pH7.2, heat treatment of enzyme no, reaction time 1 h", "value": "not detected"},
      {"measurement": "Decomposition efficiency of glycitin family in soymilk", "setting": "pH7.2, heat treatment of enzyme no, reaction time 3 h", "value": "not detected"},
      {"measurement": "Decomposition efficiency of glycitin family in soymilk", "setting": "pH7.2, heat treatment of enzyme no, reaction time 6 h", "value": "not detected"},
      {"measurement": "Decomposition efficiency of glycitin family in soymilk", "setting": "pH7.2, heat treatment of enzyme yes, reaction time 6 h", "value": 56.9},
      {"measurement": "Decomposition efficiency of glycitin family in defatted soybean", "setting": "pH7.8, heat treatment of enzyme: no, reaction time 0 h", "value": "not detected"},
      {"measurement": "Decomposition efficiency of glycitin family in defatted soybean", "setting": "pH7.8, heat treatment of enzyme: no, reaction time 1 h", "value": "not detected"},
      {"measurement": "Decomposition efficiency of glycitin family in defatted soybean", "setting": "pH7.8, heat treatment of enzyme: no, reaction time 3 h", "value": "not detected"},
      {"measurement": "Decomposition efficiency of glycitin family in defatted soybean", "setting": "pH7.8, heat treatment of enzyme: no, reaction time 6 h", "value": "not detected"},
      {"measurement": "Decomposition efficiency of glycitin family in defatted soybean", "setting": "pH7.8, heat treatment of enzyme: yes, reaction time 6 h", "value": "not detected"},
      {"measurement": "Decomposition efficiency of glycitin family in roasted soy flour", "setting": "pH8.5, heat treatment of enzyme no, reaction time 0 h", "value": 59.4},
      {"measurement": "Decomposition efficiency of glycitin family in roasted soy flour", "setting": "pH8.5, heat treatment of enzyme no, reaction time 1 h", "value": 39.4},
      {"measurement": "Decomposition efficiency of glycitin family in roasted soy flour", "setting": "pH8.5, heat treatment of enzyme no, reaction time 3 h", "value": 29.3},
      {"measurement": "Decomposition efficiency of glycitin family in roasted soy flour", "setting": "pH8.5, heat treatment of enzyme no, reaction time 6 h", "value": 22.4},
      {"measurement": "Decomposition efficiency of glycitin family in roasted soy flour", "setting": "pH8.5, heat treatment of enzyme yes, reaction time 6 h", "value": 59.2},
      {"measurement": "Decomposition efficiency of glycitin family in concentrated soybean protein", "setting": "pH8.6, heat treatment of enzyme: no, reaction time 0 h", "value": 54.9, "unit": "%"},
      {"measurement": "Decomposition efficiency of glycitin family in concentrated soybean protein", "setting": "pH8.6, heat treatment of enzyme: no, reaction time 1 h", "value": 51.6, "unit": "%"},
      {"measurement": "Decomposition efficiency of glycitin family in concentrated soybean protein", "setting": "pH8.6, heat treatment of enzyme: no, reaction time 3 h", "value": 45.9, "unit": "%"},
      {"measurement": "Decomposition efficiency of glycitin family in concentrated soybean protein", "setting": "pH8.6, heat treatment of enzyme: no, reaction time 6 h", "value": 36.7, "unit": "%"},
      {"measurement": "Decomposition efficiency of glycitin family in concentrated soybean protein", "setting": "pH8.6, heat treatment of enzyme: yes, reaction time 6 h", "value": 56.8, "unit": "%"},
      {"measurement": "Decomposition efficiency of glycitin family in soymilk", "setting": "pH11.6, heat treatment of enzyme no, reaction time 0 h", "value": 54.3},
      {"measurement": "Decomposition efficiency of glycitin family in soymilk", "setting": "pH11.6, heat treatment of enzyme no, reaction time 1 h", "value": "not detected"},
      {"measurement": "Decomposition efficiency of glycitin family in soymilk", "setting": "pH11.6, heat treatment of enzyme no, reaction time 3 h", "value": "not detected"},
      {"measurement": "Decomposition efficiency of glycitin family in soymilk", "setting": "pH11.6, heat treatment of enzyme no, reaction time 6 h", "value": "not detected"},
      {"measurement": "Decomposition efficiency of glycitin family in soymilk", "setting": "pH11.6, heat treatment of enzyme yes, reaction time 6 h", "value": 59.7}
    ]}
  ]
}
